According to US20080009435A1, “Synthetic methods for aplidine and new antitumoral derivatives, methods of making and using them” (Pharma Mar, S.A., a Spain corporation, priority 2000, published 2008):
Read-outs that look alike come from different tables or passages of the source. *1 amine or outer side, *2 acyl side, *3 side chain or, on linkers, in order; H or OH if unused. Where a SMILES comes first, the peptide text is derived from it. Bridges are numbered along the chain shown (N, C = ends). [ ]: non-standard residue; d: D form. The star is where a group is joined. ξ: configuration not given here. X1 = CC[C@H](C)[C@@H](N[*:1])[C@@H](O)CC(=O)O[C@H](C(=O)[C@H](C)C(=O)[*:2])C(C)C; X2 = CC[C@H](C)[C@@H](N[*:1])[C@@H](O)CC(=O)[*:2]; X4 = CC(C)[C@H](N[*:1])C(=O)[C@H](C)C(=O)[*:2]; X3 = C[C@H](O[Si](C)(C)C(C)(C)C)C(=O)*; NMeY = CN[C@@H](Cc1ccc(O)cc1)C(=O)O; dNMeL = CN[C@H](CC(C)C)C(=O)O; Hiv = CC(C)[C@H](O)C(=O)O; Pyruvoyl = CC(=O)C(=O)*; Cbz = O=C(OCc1ccccc1)*; ξP = O=C(O)C1CCCN1

Tests used:
Test in all cases: Cytotoxicity IC50 (after Berjeron et al)
[1] = system: A549 human lung carcinoma; details: Homo sapiens
Description: (§1) Methodology: after Berjeron et al, Biochem and Bioph Res. Comm., 1984, 121, 3, 848-854.
(§2) P388=Murine lymphoma. A549=human lung carcinoma. HT-29=human colon carcinoma. MEL-28=human melanoma.
(§3) A549=human lung carcinoma. HT-29=human colon carcinoma. MEL-28=human melanoma.

[2] = system: HT-29 human colon carcinoma; details: Homo sapiens
Description: as §1, §2, §3

P388 Murine lymphoma = details: Mus musculus, P388, read-out: Cytotoxicity of aplidine derivatives IC50 (Molar) P388
Description: as §1, §2, §3

MEL-28 human melanoma = details: Homo sapiens, SK-MEL-28, read-out: Cytotoxicity of aplidine derivatives IC50 (Molar) MEL28
Description: as §1, §2, §3

[3] = A549, read-out: Cytotoxicity of aplidine derivatives IC50 (Molar) A549
[4] = HT-29, read-out: Cytotoxicity of aplidine derivatives IC50 (Molar) HT29

SMILES: CC[C@H](C)[C@H]1NC(=O)[C@@H](NC(=O)[C@@H](CC(C)C)N(C)C(=O)C2CCCN2C(=O)[C@H](C)O[Si](C)(C)C(C)(C)C)[C@@H](C)OC(=O)[C@H](Cc2ccc(OC)cc2)N(C)C(=O)[C@@H]2CCCN2C(=O)[C@H](CC(C)C)NC(=O)[C@H](C(C)C)NC(=O)C[C@@H]1O (stereo partly drawn) [9LSVPL2(L), [Val]^3-[L-Lac(OTBDMS)]^9-aplidine] (X3-[ξP][dNMeL]T[X2]VLP[NMeY](Me); ester 3-C)
- IC50 [1, 3]: 10.2 nM
- IC50 [2, 4]: 8.55 nM

SMILES: C=C(C)C(=O)N1CCC[C@]12CCN([C@H](CC(C)C)C(=O)N[C@@H]1C(=O)N[C@H]([C@@H](C)CC)[C@@H](O)CC(=O)O[C@@H](C(C)C)C(=O)N[C@@H](CC(C)C)C(=O)N3CCC[C@H]3C(=O)N(C)[C@@H](Cc3ccc(OC)cc3)C(=O)O[C@@H]1C)C2=O [9SASHPL1]
- IC50 [1, 3]: 93.9 nM
- IC50 [2, 4]: 93.9 nM

SMILES: CC[C@H](C)[C@H]1NC(=O)[C@@H](NC(=O)[C@@H](CC(C)C)N2CC[C@]3(CCCN3C(=O)OC(C)(C)C)C2=O)[C@@H](C)OC(=O)[C@H](Cc2ccc(OC)cc2)N(C)C(=O)[C@@H]2CCCN2C(=O)[C@H](CC(C)C)NC(=O)[C@@H](C)C(=O)[C@H](C(C)C)OC(=O)C[C@@H]1O [9SBSAPL1, [(5R)-1-(tert-buthoxycarbonyl)-7-[(1R)-1-carboxy-3-methylbutyl]-6-oxo-1,7-diazaspiro[4,4]nonane]^7-9-aplidine]
- IC50 [1, 3]: 8.68 nM
- IC50 [2, 4]: 8.68 nM

SMILES: CC[C@H](C)[C@H]1NC(=O)[C@@H](NC(=O)[C@@H](CC(C)C)N2CC[C@]3(CCCN3C(=O)OC(C)(C)C)C2=O)[C@@H](C)OC(=O)[C@H](Cc2ccc(OC)cc2)N(C)C(=O)[C@@H]2CCCN2C(=O)[C@H](CC(C)C)NC(=O)[C@H](C(C)C)OC(=O)C[C@@H]1O [9SBSHPL1]
- IC50 [1, 3]: 4.56 nM
- IC50 [2, 4]: 4.56 nM

SMILES: CC[C@H](C)[C@H]1NC(=O)[C@@H](NC(=O)[C@@H](CC(C)C)N2CC[C@]3(CCCN3C(=O)C(C)C)C2=O)[C@@H](C)OC(=O)[C@H](Cc2ccc(OC)cc2)N(C)C(=O)[C@@H]2CCCN2C(=O)[C@H](CC(C)C)NC(=O)[C@@H](C)C(=O)[C@H](C(C)C)OC(=O)C[C@@H]1O [9SISAPL1, [(5R)-1-(isobutiryl)-7-[(R)-1-carboxy-3-methylbutyl]-6-oxo-1,7-diazaspiro[4,4]nonane]^7-9-Aplidine]
- IC50 [1, 3]: 89.1 nM
- IC50 [2, 4]: 89.1 nM

SMILES: CC[C@H](C)[C@H]1NC(=O)[C@@H](NC(=O)[C@@H](CC(C)C)N2CC[C@]3(CCCN3C(=O)C(C)C)C2=O)[C@@H](C)OC(=O)[C@H](Cc2ccc(OC)cc2)N(C)C(=O)[C@@H]2CCCN2C(=O)[C@H](CC(C)C)NC(=O)[C@H](C(C)C)OC(=O)C[C@@H]1O [9SISHPL1, [Hiv]^3-[(5R)-1-(tert-buthoxycarbonyl)-7-[(1R)-1-carboxy-3-methylbutyl]-6-oxo-1,7-diazaspiro[4,4]nonane]^7-9-aplidine]
- IC50 [1, 3]: 93.8 nM
- IC50 [2, 4]: 93.8 nM

SMILES: CC[C@H](C)[C@H]1NC(=O)[C@@H](NC(=O)[C@@H](CC(C)C)N2CC[C@]3(CCCN3C(=O)C(C)=O)C2=O)[C@@H](C)OC(=O)[C@H](Cc2ccc(OC)cc2)N(C)C(=O)[C@@H]2CCCN2C(=O)[C@H](CC(C)C)NC(=O)[C@@H](C)C(=O)[C@H](C(C)C)OC(=O)C[C@@H]1O [9SPSAPL1, [(5R)-1-(pyruvyl)-7-[(1R)-1-carboxy-3-methylbutyl]-6-oxo-1,7-diazaspiro[4,4]nonane]^7-9-aplidine]
- IC50 [1, 3]: 8.55 nM
- IC50 [2, 4]: 8.9 nM

SMILES: CC[C@H](C)[C@H]1NC(=O)[C@@H](NC(=O)[C@@H](CC(C)C)N2CC[C@]3(CCCN3C(=O)C(C)=O)C2=O)[C@@H](C)OC(=O)[C@H](Cc2ccc(OC)cc2)N(C)C(=O)[C@@H]2CCCN2C(=O)[C@H](CC(C)C)NC(=O)[C@H](C(C)C)OC(=O)C[C@@H]1O [9SPSHPL1, [Hiv]^3-[(5R)-1-(pyruvyl)-7-[(1R)-1-carboxy-3-methylbutyl]-6-oxo-1,7-diazaspiro[4,4]nonane]^7-9-aplidine]
- IC50 [1, 3]: 93.8 nM
- IC50 [2, 4]: 93.8 nM

SMILES: CC[C@H](C)[C@H]1NC(=O)[C@@H](NC(=O)[C@@H](CC(C)C)NC)[C@@H](C)OC(=O)[C@H](Cc2ccc(OC)cc2)N(C)C(=O)[C@@H]2CCCN2C(=O)[C@H](CC(C)C)NC(=O)[C@@H](C)C(=O)[C@H](C(C)C)OC(=O)C[C@@H]1O [SAPL2, Didemnin A, reference compound] (H-[dNMeL]T[X1]LP[NMeY](Me); ester 2-C)
- IC50 (P388 Murine lymphoma): 5.3 nM
- IC50 [1, 3]: 4.24 nM
- IC50 [2, 4]: 8.48 nM
- IC50 (MEL-28 human melanoma): 1.13 nM

SMILES: CC[C@H](C)[C@H]1NC(=O)[C@@H](NC(=O)[C@@H](CC(C)C)N(C)C(=O)OCc2ccccc2)[C@@H](C)OC(=O)[C@H](Cc2ccc(OC)cc2)N(C)C(=O)[C@@H]2CCCN2C(=O)[C@H](CC(C)C)NC(=O)[C@@H](C)C(=O)[C@H](C(C)C)OC(=O)C[C@@H]1O [SAPL3, Z-Didemnin A] (Cbz-[dNMeL]T[X1]LP[NMeY](Me); ester 2-C)
- IC50 (P388 Murine lymphoma): 9.3 nM
- IC50 [1, 3]: 2.32 nM
- IC50 [2, 4]: 4.64 nM
- IC50 (MEL-28 human melanoma): 4.64 nM

SMILES: CC[C@H](C)[C@H]1NC(=O)[C@@H](NC(=O)[C@@H](CC(C)C)NC)[C@@H](C)OC(=O)[C@H](Cc2ccc(OC)cc2)N(C)C(=O)[C@@H]2CCCN2C(=O)[C@H](CC(C)C)NC(=O)[C@H](C(C)C)OC(=O)C[C@@H]1O [SHPL2, [Hiv]^3-Didemnin A] (H-[dNMeL]T[X2][Hiv]LP[NMeY](Me); ester 2-C)
- IC50 (P388 Murine lymphoma): 1.1 nM
- IC50 [1, 3]: 1.13 nM
- IC50 [2, 4]: 1.13 nM
- IC50 (MEL-28 human melanoma): 1.13 nM

SMILES: CC[C@H](C)[C@H]1NC(=O)[C@@H](NC(=O)[C@@H](CC(C)C)N(C)C(=O)[C@@H]2CCCN2C(=O)C(C)=O)[C@@H](C)OC(=O)[C@H](Cc2ccc(OC)cc2)N(C)C(=O)[C@@H]2CCCN2C(=O)[C@H](CC(C)C)NC(=O)[C@@H](C)C(=O)[C@H](C(C)C)NC(=O)C[C@@H]1O [SNPL1, [Aip]^3-Aplidine] (Pyruvoyl-P[dNMeL]T[X2][X4]LP[NMeY](Me); ester 3-C)
- IC50 ([1]; A549, read-out: Cytotoxicity of [aa3]-aplidine Congeners IC50 (Molar) A549): 0.901 nM
- IC50 ([2]; HT-29, read-out: Cytotoxicity of [aa3]-aplidine Congeners IC50 (Molar) HT29): 0.901 nM

SMILES: CC[C@H](C)[C@H]1NC(=O)[C@@H](NC(=O)[C@@H](CC(C)C)NC)[C@@H](C)OC(=O)[C@H](Cc2ccc(OC)cc2)N(C)C(=O)[C@@H]2CCCN2C(=O)[C@H](CC(C)C)NC(=O)[C@@H](C)C(=O)[C@H](C(C)C)NC(=O)C[C@@H]1O [SNPL2, [Aip]^3-Didemnin A] (H-[dNMeL]T[X2][X4]LP[NMeY](Me); ester 2-C)
- IC50 [1, 3]: 10.6 nM
- IC50 [2, 4]: 10.6 nM

SMILES: CC[C@H](C)[C@H]1NC(=O)[C@@H](NC(=O)[C@@H](CC(C)C)N(C)C(=O)OCc2ccccc2)[C@@H](C)OC(=O)[C@H](Cc2ccc(OC)cc2)N(C)C(=O)[C@@H]2CCCN2C(=O)[C@H](CC(C)C)NC(=O)[C@@H](C)C(=O)[C@H](C(C)C)NC(=O)C[C@@H]1O [SNPL3, [Aip]^3 Z-Didemnin A] (Cbz-[dNMeL]T[X2][X4]LP[NMeY](Me); ester 2-C)
- IC50 [1, 3]: 0.0929 nM
- IC50 [2, 4]: 0.0929 nM
